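Dose response: 5 concentrations. Exposure: 48 h. Format: 96-well plates. Endpoint: linear interpolation; highest concentration if not reached. The concentration for 50% growth inhibition is given as GI50.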 Active and inactive are the calls of the source. No stated cut-off is given here; in the data, active = GI50 up to about 1.1 µM and inactive = higher.
Legend:
Test in all cases: DTP human tumour cell line panel, 48 h
[1] = tested on: HCC 2998
[2] = tested on: SF-295
[3] = tested on: SNB-75
[4] = tested on: HL-60
[5] = tested on: OVCAR-3
[6] = tested on: BT-549
[7] = tested on: SR
[8] = tested on: KM12
[9] = tested on: SK-OV-3
[10] = tested on: NCI-H522
[11] = tested on: 786-0
[12] = tested on: MCF7
[13] = tested on: OVCAR-8
[14] = tested on: EKVX
[15] = tested on: PC-3
[16] = tested on: CCRF-CEM
[17] = tested on: UACC-257
[18] = tested on: SK-MEL-2
[19] = tested on: NCI/ADR-RES
[20] = tested on: HT-29
[21] = tested on: Hs-578T
[22] = tested on: HOP-62
[23] = tested on: A549
[24] = tested on: OVCAR-5
[25] = tested on: RXF 393
[26] = tested on: IGROV-1
[27] = tested on: CAKI-1
[28] = tested on: UACC-62
[29] = tested on: SN12C
[30] = tested on: A498
[31] = tested on: LOX IMVI
[32] = tested on: HCT-116
[33] = tested on: SK-MEL-5
[34] = tested on: TK-10
[35] = tested on: M14
[36] = tested on: DU-145
[37] = tested on: SK-MEL-28
[38] = tested on: NCI-H226
[39] = tested on: K562
[40] = tested on: U-251
[41] = tested on: MDA-MB-231
[42] = tested on: T47D
[43] = tested on: RPMI-8226
[44] = tested on: NCI-H23
[45] = tested on: Malme-3M
[46] = tested on: MDA-N
[47] = tested on: SF-268
[48] = tested on: ACHN
[49] = tested on: MDA-MB-435
[50] = tested on: HOP-92
[51] = tested on: UO-31
[52] = tested on: SW-620
[53] = tested on: COLO 205
[54] = tested on: HCT-15
[55] = tested on: NCI-H460
[56] = tested on: MOLT-4
[57] = tested on: OVCAR-4
[58] = tested on: SF-539
[59] = tested on: SNB-19

Measured: GI50

COc1ccc(-c2ncnc(-c3ccc(OC)c(OC)c3)n2)cc1OC
inactive: [1] > 100 µM | [2] > 100 µM | [3] > 100 µM | [4] > 100 µM | [5] > 100 µM | [6] > 100 µM | [7] 45.2 µM | [8] > 100 µM | [9] > 100 µM | [10] > 100 µM | [11] > 100 µM | [12] > 100 µM | [13] > 100 µM | [14] > 100 µM | [15] > 100 µM | [16] > 100 µM | [17] > 100 µM | [18] > 100 µM | [19] > 100 µM | [20] > 100 µM | [21] > 100 µM | [22] > 100 µM | [23] > 100 µM | [24] > 100 µM | [25] 36.5 µM | [26] > 100 µM | [27] > 100 µM | [28] > 100 µM | [29] > 100 µM | [30] > 100 µM | [31] > 100 µM | [32] > 100 µM | [33] > 100 µM | [34] > 100 µM | [35] > 100 µM | [36] > 100 µM | [37] > 100 µM | [38] > 100 µM | [39] > 100 µM | [40] > 100 µM | [41] > 100 µM | [42] > 100 µM | [43] > 10 µM | [44] > 100 µM | [45] > 100 µM | [46] > 100 µM | [47] > 100 µM | [48] > 100 µM | [49] > 100 µM | [50] > 100 µM | [51] 91 µM | [52] > 100 µM | [53] > 100 µM

COc1cc(C2c3cc4c(cc3OC(NC3CCCCC3)C2C)OCO4)cc(OC)c1OC (stereo not drawn)
0.543 µM: [54]
inactive: [1] 1.5 µM | [14] 4.47 µM | [17] 46.8 µM | [22] 2.38 µM | [24] 3.03 µM | [34] 16.9 µM | [37] 21.8 µM | [38] 1.52 µM | [50] 2.65 µM
active: [2] 0.203 µM | [3] 0.223 µM | [4] 0.271 µM | [5] 0.267 µM | [6] 0.649 µM | [55] 0.488 µM | [7] 0.378 µM | [8] 0.407 µM | [9] 0.394 µM | [10] 0.359 µM | [11] 0.493 µM | [12] 0.485 µM | [13] 0.845 µM | [15] 0.382 µM | [16] 0.422 µM | [56] 0.48 µM | [18] 0.578 µM | [19] 0.296 µM | [20] 0.383 µM | [21] 0.377 µM | [23] 0.885 µM | [25] 0.258 µM | [26] 0.665 µM | [27] 0.409 µM | [28] 0.379 µM | [29] 0.687 µM | [30] 0.681 µM | [31] 0.617 µM | [57] 0.615 µM | [32] 0.47 µM | [58] 0.339 µM | [33] 0.362 µM | [35] 0.508 µM | [36] 0.478 µM | [59] 0.45 µM | [39] 0.393 µM | [40] 0.467 µM | [41] 0.393 µM | [42] 0.339 µM | [43] 0.403 µM | [44] 0.499 µM | [45] 0.321 µM | [46] 0.188 µM | [47] 0.701 µM | [48] 0.746 µM | [49] 0.19 µM | [51] 0.515 µM | [52] 0.34 µM | [53] 0.241 µM

C=CC1=C(C)c2cc3[nH]c(c4c5nc(cc6[nH]c(cc1n2)c(C=O)c6CC)C(C)=C5C(=O)[C@@H]4C(=O)OC)[C@@H](CCC(=O)O)[C@@H]3C
inactive: [1] > 100 µM | [2] 45 µM | [3] 2.54 µM | [4] 42.6 µM | [6] > 100 µM | [55] > 100 µM | [7] 10 µM | [8] 21.5 µM | [9] > 100 µM | [10] 30.8 µM | [11] > 100 µM | [12] > 100 µM | [13] 53.3 µM | [14] > 100 µM | [15] 63.4 µM | [16] 31.3 µM | [56] 43.6 µM | [17] 83.9 µM | [18] > 100 µM | [19] > 100 µM | [20] > 100 µM | [21] > 100 µM | [23] > 100 µM | [24] > 100 µM | [25] 1.79 µM | [26] 63.5 µM | [27] > 100 µM | [28] > 100 µM | [29] > 100 µM | [30] > 100 µM | [31] > 100 µM | [57] > 100 µM | [32] 65.5 µM | [58] 39.6 µM | [33] 30.3 µM | [34] > 100 µM | [35] > 100 µM | [36] 13.4 µM | [37] > 100 µM | [59] > 100 µM | [38] > 100 µM | [39] 51.3 µM | [40] 9.25 µM | [41] 28 µM | [42] 20.7 µM | [44] 24.7 µM | [45] > 100 µM | [46] > 100 µM | [47] 24.4 µM | [48] 46 µM | [49] > 100 µM | [50] > 100 µM | [51] 32.7 µM | [52] 66.5 µM | [53] 95.7 µM
35.6 µM: [54]
